Data published in patent US20230093099A1, “COMPOUNDS AND METHODS OF TREATING CANCERS” (CULLGEN (SHANGHAI), INC., priority 2019, published 2023).

Test system: RS4;11 cells
Assay: Cell viability assay (CellTiter-Glo) in RS4;11 cells
Format: cell-based
Conditions: Homo sapiens, 72 h; RS4;11 cells; cell viability, 3 days, CellTiter-Glo; read-out: IC50
Summary of the method: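 RS4;11 cells seeded at 5000 per well, exposed for 3 days to 8- or 12-point 3-fold serial dilutions. Viability read by CellTiter-Glo luminescence; IC50 fitted by nonlinear least-squares regression.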

SMILES | IC50
Cc1ncsc1-c1ccc(CNC(=O)[C@@H]2C[C@@H](O)CN2C(=O)[C@@H](NC(=O)CCCCCC(=O)N2CCC(n3cc(-c4cnc5cccc(-c6cc(F)c(CN7CCOCC7)c(F)c6)c5n4)cn3)CC2)C(C)(C)C)cc1 [JA-048, (2S,4R)-1-[(2S)-2-[[7-[4-[4-[8-[3,5-Difluoro-4-(morpholinomethyl)phenyl]quinoxalin-2-yl]pyrazol-1-yl]-1-piperidyl]-7-oxo-heptanoyl]amino]-3,3-dimethyl-butanoyl]-4-hydroxy-N-[[4-(4-methylthiazol-5-yl)phenyl]methyl]pyrrolidine-2-carboxamide] | > 10 µM
O=C1CCC(N2C(=O)c3cccc(NCCOCCOCCOCCC(=O)N4CCC(n5cc(-c6cnc7cccc(-c8cc(F)c(CN9CCOCC9)c(F)c8)c7n6)cn5)CC4)c3C2=O)C(=O)N1 (stereo not shown) [JA-049, 4-[2-[2-[2-[3-[4-[4-[8-[3,5-Difluoro-4-(morpholinomethyl)phenyl]quinoxalin-2-yl]pyrazol-1-yl]-1-piperidyl]-3-oxo-propoxy]ethoxy]ethoxy]ethylamino]-2-(2,6-dioxo-3-piperidyl)isoindoline-1,3-dione] | 1.27 µM
Cc1ncsc1-c1ccc(CNC(=O)[C@@H]2C[C@@H](O)CN2C(=O)[C@@H](NC(=O)CCOCCOCCOCCC(=O)N2CCC(n3cc(-c4cnc5cccc(-c6cc(F)c(CN7CCOCC7)c(F)c6)c5n4)cn3)CC2)C(C)(C)C)cc1 [JA-050, (2S,4R)-1-[(2S)-2-[3-[2-[2-[3-[4-[4-[8-[3,5-Difluoro-4-(morpholinomethyl)phenyl]quinoxalin-2-yl]pyrazol-1-yl]-1-piperidyl]-3-oxo-propoxy]ethoxy]ethoxy]propanoylamino]-3,3-dimethyl-butanoyl]-4-hydroxy-N-[[4-(4-methylthiazol-5-yl)phenyl]methyl]pyrrolidine-2-carboxamide] | > 10 µM
Cc1ncsc1-c1ccc(CNC(=O)[C@@H]2C[C@@H](O)CN2C(=O)[C@@H](NC(=O)CCCCCCCC(=O)N2CCC(n3cc(-c4cnc5cccc(-c6cc(F)c(CN7CCOCC7)c(F)c6)c5n4)cn3)CC2)C(C)(C)C)cc1 [JA-051, (2S,4R)-1-[(2S)-2-[[9-[4-[4-[8-[3,5-Difluoro-4-(morpholinomethyl)phenyl]quinoxalin-2-yl]pyrazol-1-yl]-1-piperidyl]-9-oxo-nonanoyl]amino]-3,3-dimethyl-butanoyl]-4-hydroxy-N-[[4-(4-methylthiazol-5-yl)phenyl]methyl]pyrrolidine-2-carboxamide] | 4.64 µM
Cc1ncsc1-c1ccc(CNC(=O)[C@@H]2C[C@@H](O)CN2C(=O)[C@@H](NC(=O)CCCCCCC(=O)N2CCC(n3cc(-c4cnc5cccc(-c6cc(F)c(CN7CCOCC7)c(F)c6)c5n4)cn3)CC2)C(C)(C)C)cc1 [JA-052, (2S,4R)-1-[1 (2S)-2-[[8-[4-[4-[8-[3,5-Difluoro-4-(morpholinomethyl)phenyl]quinoxalin-2-yl]pyrazol-1-yl]-1-piperidyl]-8-oxo-octanoyl]amino]-3,3-dimethyl-butanoyl]-4-hydroxy-N-[[14-(4-methylthiazol-5-yl)phenyl]methyl]pyrrolidine-2-carboxamide] | > 10 µM
Cc1ncsc1-c1ccc(CNC(=O)[C@@H]2C[C@@H](O)CN2C(=O)[C@@H](NC(=O)COCCOCCOCC(=O)N2CCC(n3cc(-c4cnc5cccc(-c6cc(F)c(CN7CCOCC7)c(F)c6)c5n4)cn3)CC2)C(C)(C)C)cc1 [JA-053, (2S,4R)-1-[(2S)-2-[[2-[2-[2-[2-[4-[4-[8-[3,5-Difluoro-4-(morpholinomethyl)phenyl]quinoxalin-2-yl]pyrazol-1-yl]-1-piperidyl]-2-oxo-ethoxy]ethoxy]ethoxy]acetyl]amino]-3,3-dimethyl-butanoyl]-4-hydroxy-N-[[4-(4-methylthiazol-5-yl)phenyl]methyl]pyrrolidine-2-carboxamide] | > 10 µM
Cc1ncsc1-c1ccc(CNC(=O)[C@@H]2C[C@@H](O)CN2C(=O)[C@@H](NC(=O)COCCOCC(=O)N2CCC(n3cc(-c4cnc5cccc(-c6cc(F)c(CN7CCOCC7)c(F)c6)c5n4)cn3)CC2)C(C)(C)C)cc1 [JA-054, (2S,4R)-1-[(2S)-2-[[2-[2-[2-[4-[4-[8-[3,5-Difluoro-4-(morpholinomethyl)phenyl]quinoxalin-2-yl]pyrazol-1-yl]-1-piperidyl]-2-oxo-ethoxy]ethoxy]acetyl]amino]-3,3-dimethyl-butanoyl]-4-hydroxy-N-[[4-(4-methylthiazol-5-yl)phenyl]methyl]pyrrolidine-2-carboxamide] | > 10 µM
Cc1ncsc1-c1ccc(CNC(=O)[C@@H]2C[C@@H](O)CN2C(=O)[C@@H](NC(=O)COCCOCCOCCOCCOCC(=O)N2CCC(n3cc(-c4cnc5cccc(-c6cc(F)c(CN7CCOCC7)c(F)c6)c5n4)cn3)CC2)C(C)(C)C)cc1 [JA-055, (2S,4R)-1-[(2S)-2-[[2-[2-[2-[2-[2-[2-[4-[4-[8-[3,5-Difluoro-4-(morpholinomethyl)phenyl]quinoxalin-2-yl]pyrazol-1-yl]-1-piperidyl]-2-oxo-ethoxy]ethoxy]ethoxy]ethoxy]ethoxy]acetyl]amino]-3,3-dimethyl-butanoyl]-4-hydroxy-N-[[4-(4-methylthiazol-5-yl)phenyl]methyl]pyrrolidine-2-carboxamide] | > 10 µM
Cc1ncsc1-c1ccc(CNC(=O)[C@@H]2C[C@@H](O)CN2C(=O)[C@@H](NC(=O)CCOCCOCCC(=O)N2CCC(n3cc(-c4cnc5cccc(-c6cc(F)c(CN7CCOCC7)c(F)c6)c5n4)cn3)CC2)C(C)(C)C)cc1 [JA-056, (2S,4R)-1-[(2S)-2-[3-[2-[3-[4-[4-[8-[3,5-Difluoro-4-(morpholinomethyl)phenyl]quinoxalin-2-yl]pyrazol-1-yl]-1-piperidyl]-3-oxo-propoxy]ethoxy]propanoylamino]-3,3-dimethyl-butanoyl]-4-hydroxy-N-[[4-(4-methylthiazol-5-yl)phenyl]methyl]pyrrolidine-2-carboxamide] | > 10 µM
Cc1ncsc1-c1ccc(CNC(=O)[C@@H]2C[C@@H](O)CN2C(=O)[C@@H](NC(=O)COCC(=O)N2CCC(n3cc(-c4cnc5cccc(-c6cc(F)c(CN7CCOCC7)c(F)c6)c5n4)cn3)CC2)C(C)(C)C)cc1 [JA-057, (2S,4R)-1-[(2S)-2-[[2-[2-[4-[4-[8-[3,5-Difluoro-4-(morpholinomethyl)phenyl]quinoxalin-2-yl]pyrazol-1-yl]-1-piperidyl]-2-oxo-ethoxy]acetyl]amino]-3,3-dimethyl-butanoyl]-4-hydroxy-N-[[4-(4-methylthiazol-5-yl)phenyl]methyl]pyrrolidine-2-carboxamide] | > 10 µM
Cc1ncsc1-c1ccc(CNC(=O)[C@@H]2C[C@@H](O)CN2C(=O)[C@@H](NC(=O)CCOCCC(=O)N2CCC(n3cc(-c4cnc5cccc(-c6cc(F)c(CN7CCOCC7)c(F)c6)c5n4)cn3)CC2)C(C)(C)C)cc1 [JA-058, (2S,4R)-1-[(2S)-2-[3-[3-[4-[4-[8-[3,5-Difluoro-4-(morpholinomethyl)phenyl]quinoxalin-2-yl]pyrazol-1-yl]-1-piperidyl]-3-oxo-propoxy]propanoylamino]-3,3-dimethyl-butanoyl]-4-hydroxy-N-[[4-(4-methylthiazol-5-yl)phenyl]methyl]pyrrolidine-2-carboxamide] | 2.52 µM
Cc1ncsc1-c1ccc(CNC(=O)[C@@H]2C[C@@H](O)CN2C(=O)[C@@H](NC(=O)CCCCCCCCCC(=O)N2CCC(n3cc(-c4cnc5cccc(-c6cc(F)c(CN7CCOCC7)c(F)c6)c5n4)cn3)CC2)C(C)(C)C)cc1 [JA-059, (2S,4R)-1-[(2S)-2-[[11-[4-[4-[8-[3,5-Difluoro-4-(morpholinomethyl)phenyl]quinoxalin-2-yl]pyrazol-1-yl]-1-piperidyl]-11-oxo-undecanoyl]amino]-3,3-dimethyl-butanoyl]-4-hydroxy-N-[[4-(4-methylthiazol-5-yl)phenyl]methyl]pyrrolidine-2-carboxamide] | > 10 µM
Cc1ncsc1-c1ccc(CNC(=O)[C@@H]2C[C@@H](O)CN2C(=O)[C@@H](NC(=O)CCC(=O)N2CCC(n3cc(-c4cnc5cccc(-c6cc(F)c(CN7CCOCC7)c(F)c6)c5n4)cn3)CC2)C(C)(C)C)cc1 [JA-060, (2S,4R)-1-[(2S)-2-[[4-[4-[4-[8-[3,5-Difluoro-4-(morpholinomethyl)phenyl]quinoxalin-2-yl]pyrazol-1-yl]-1-piperidyl]-4-oxo-butanoyl]amino]-3,3-dimethyl-butanoyl]-4-hydroxy-N-[[4-(4-methylthiazol-5-yl)phenyl]methyl]pyrrolidine-2-carboxamide] | > 10 µM
Cc1ncsc1-c1ccc(CNC(=O)[C@@H]2C[C@@H](O)CN2C(=O)[C@@H](NC(=O)CCOCCOCCOCCOCCC(=O)N2CCC(n3cc(-c4cnc5cccc(-c6cc(F)c(CN7CCOCC7)c(F)c6)c5n4)cn3)CC2)C(C)(C)C)cc1 [JA-061, (2S,4R)-1-[(2S)-2-[3-[2-[2-[2-[3-[4-[4-[8-[3,5-Difluoro-4-(morpholinomethyl)phenyl]quinoxalin-2-yl]pyrazol-1-yl]-1-piperidyl]-3-oxo-propoxy]ethoxy]ethoxy]ethoxy]propanoylamino]-3,3-dimethyl-butanoyl]-4-hydroxy-N-[[4-(4-methylthiazol-5-yl)phenyl]methyl]pyrrolidine-2-carboxamide] | > 10 µM
Cc1ncsc1-c1ccc(CNC(=O)[C@@H]2C[C@@H](O)CN2C(=O)[C@@H](NC(=O)CCCCCCC(=O)N2CCN(c3ccc(Nc4nc5cccc(-c6ccc(S(C)(=O)=O)cc6)n5n4)cc3)CC2)C(C)(C)C)cc1 [JA-062, (2S,4R)-1-((S)-3,3-Dimethyl-2-(8-(4-(4-((5-(4-(methylsulfonyl)phenyl)-[1,2,4]triazolo[1,5-a]pyridin-2-yl)amino)phenyl)piperazin-1-yl)-8-oxooctanamido)butanoyl)-4-hydroxy-N-(4-(4-methylthiazol-5-yl)benzyl)pyrrolidine-2-carboxamide] | > 10 µM
Cc1ncsc1-c1ccc(CNC(=O)[C@@H]2C[C@@H](O)CN2C(=O)[C@@H](NC(=O)CCOCCOCCOCCOCCC(=O)N2CCN(c3ccc(Nc4nc5cccc(-c6ccc(S(C)(=O)=O)cc6)n5n4)cc3)CC2)C(C)(C)C)cc1 [JA-063, (2S,4R)-1-((S)-2-(tert-Butyl)-19-(4-(4-((5-(4-(methylsulfonyl)phenyl)-[1,2,4]triazolo[1,5-a]pyridin-2-yl)amino)phenyl)piperazin-1-yl)-4,19-dioxo-7,10,13,16-tetraoxa-3-azanonadecanoyl)-4-hydroxy-N-(4-(4-methylthiazol-5-yl)benzyl)pyrrolidine-2-carboxamide] | > 10 µM
